pKi: −log10 of the molar value.
What follows are compounds tested against T1, human ALK5 (Homo sapiens, UniProt P36897) (assay: ADP-GLO Kinases assay of ALK5 enzymatic activity). Details: purified recombinant human ALK5, TGFβ1 peptide substrate, pIC50 converted to pKi by Cheng-Prusoff, high ATP protocol (15 μM) for very potent compounds, 25° C.
T1 construct: human ALK5 (recombinant TGF β1 N-term GST-tagged, 80-end); GST (N); purchased
T1 sequence (P36897 80-503 limits assumed): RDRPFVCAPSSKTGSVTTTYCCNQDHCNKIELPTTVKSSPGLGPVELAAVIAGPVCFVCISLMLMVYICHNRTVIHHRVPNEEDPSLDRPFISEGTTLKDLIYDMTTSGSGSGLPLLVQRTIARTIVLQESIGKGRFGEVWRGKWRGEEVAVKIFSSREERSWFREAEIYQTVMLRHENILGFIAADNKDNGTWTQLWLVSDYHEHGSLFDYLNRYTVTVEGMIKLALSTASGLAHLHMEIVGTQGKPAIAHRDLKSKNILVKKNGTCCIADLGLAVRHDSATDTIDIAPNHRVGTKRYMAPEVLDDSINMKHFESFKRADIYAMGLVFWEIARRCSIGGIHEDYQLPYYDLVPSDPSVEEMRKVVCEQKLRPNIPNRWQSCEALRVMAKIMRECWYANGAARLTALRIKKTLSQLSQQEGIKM
Format: biochemical
Outline: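 Purified ALK5 preincubated 15 min with compound, then reacted with substrate and ATP; ADP formed read by ADP-Glo luminescence after 120 min or 60 min reaction, all steps at 25° C. 11-point concentration-response; pIC50 converted to pKi via Cheng-Prusoff.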
For CN1CCN([C@H]2C[C@@H](C(=O)Nc3cc(Nc4cc(-c5cc(Cl)ccc5F)nnc4SC(C)(C)CO)ccn3)C2)CC1 [Example 94, Cis N-(4-{[6-(5-chloro-2-fluorophenyl)-3-[(1-hydroxy-2-methylpropan-2-yl)sulfanyl]pyridazin-4-yl]amino}pyridin-2-yl)-3-(4-methylpiperazin-1-yl)cyclobutane-1-carboxamide], the pKi was no less than 10.00. CN1CCN(CCC(=O)Nc2cc(Nc3cc(-c4cc(Cl)ccc4F)nnc3N(C)Cc3cccc(O)c3)ccn2)CC1 [Example 102, N-(4-{[6-(5-chloro-2-fluorophenyl)-3-{[(3-hydroxyphenyl)methyl](methyl)amino}pyridazin-4-yl]amino}pyridin-2-yl)-3-(4-methylpiperazin-1-yl)propanamide] was tested, and the pKi was 9.50 to 9.90. CN1CCN([C@H]2C[C@@H](C(=O)Nc3cc(Nc4cc(-c5cc(Cl)ccc5F)nnc4N(C)CC4(C)CCOC4=O)ncn3)C2)CC1 (single isomer, unassigned; enantiomer 1) [Example 143, Cis Enantiomer 1 N-(6-{[6-(5-chloro-2-fluorophenyl)-3-{methyl[(3-methyl-2-oxooxolan-3-yl)methyl]amino}pyridazin-4-yl]amino}pyrimidin-4-yl)-3-(4-methylpiperazin-1-yl)cyclobutane-1-carboxamide] gave a pKi of 9.50 to 9.90. In the case of CSCCCOc1nnc(-c2cc(Cl)ccc2F)cc1Nc1ccnc(N)c1 [Example 55, N4-[6-(5-chloro-2-fluorophenyl)-3-[3-(methylsulfanyl)propoxy]pyridazin-4-yl]pyridine-2,4-diamine], the pKi was 9.50 to 9.90. For CN1CCN(CCC(=O)Nc2cc(Nc3cc(-c4cc(Cl)ccc4F)nnc3SCC3(C)CCOC3=O)ccn2)CC1 (stereo not shown) [Example 197, N-(4-{[6-(5-chloro-2-fluorophenyl)-3-{[(3-methyl-2-oxooxolan-3-yl)methyl]sulfanyl}pyridazin-4-yl]amino}pyridin-2-yl)-3-(4-methylpiperazin-1-yl)propanamide], the pKi was 9.50 to 9.90. In the case of CN1CCN(CCC(=O)Nc2cc(Nc3cc(-c4cc(Cl)ccc4F)nnc3N(C)CC3(CO)CCOC3=O)ccn2)CC1 (stereo not shown) [Example 152, N-(4-{[6-(5-chloro-2-fluorophenyl)-3-({[3-(hydroxymethyl)-2-oxooxolan-3-yl]methyl}(methyl)amino)pyridazin-4-yl]amino}pyridin-2-yl)-3-(4-methylpiperazin-1-yl)propanamide], the pKi was no less than 10.00. In the case of COc1nnc(-c2cc(Cl)ccc2F)cc1Nc1ccc2ncsc2c1 [Example C1, [6-(5-Chloro-2-fluorophenyl)-3-methoxypyridazin-4-yl]-1,3-benzothiazol-6-amine, reference compound], the pKi was 8.20. With C[C@@H]1CN([C@H]2C[C@H](C(=O)Nc3cc(Nc4cc(-c5cc(Cl)ccc5F)nnc4N(C)CC4(C)CCOC4=O)ncn3)C2)C[C@H](C)N1 (mixture of isomers) [Example 185, N-(6-{[6-(5-chloro-2-fluorophenyl)-3-{methyl[(3-methyl-2-oxooxolan-3-yl)methyl]amino}pyridazin-4-yl]amino}pyrimidin-4-yl)-3-(3,5-dimethylpiperazin-1-yl)cyclobutane-1-carboxamide] the pKi was no less than 10.00. CN1CCN(CCC(=O)Nc2cc(Nc3cc(-c4cc(Cl)ccc4F)nnc3OC[C@H]3C[C@@H](O)C3)ccn2)CC1 [Example 71, Cis N-(4-{[6-(5-chloro-2-fluorophenyl)-3-[(3-hydroxycyclobutyl)methoxy]pyridazin-4-yl]amino}pyridin-2-yl)-3-(4-methylpiperazin-1-yl)propanamide] showed a pKi of no less than 10.00. In the case of CN(C)CCOc1nnc(-c2cc(Cl)ccc2F)cc1Nc1ccnc2[nH]ncc12 [Example 42, 6-(5-chloro-2-fluorophenyl)-3-[2-(dimethylamino)ethoxy]-N-{1H-pyrazolo[3,4-b]pyridin-4-yl}pyridazin-4-amine], the pKi was 8.50 to 9.40.
